Consider two compounds from patent US20070213394A1 (priority 2004, published 2007).

In general, EC50 refers to the midpoint of the concentration-response curve. A low value points to higher potency in that assay. By Ki is commonly meant a measure of affinity in units of concentration, obtained from inhibition or displacement. A high value points to lower affinity.

For assay [1], the system named is rats. Briefly: Forced swim test (FST). In kind it is in vivo, rat. Particulars: FIG. 3A.
Assay [2] has as its system rats. Put plainly: Intracranial self-stimulation (ICSS), lateral hypothalamic brain stimulation. In kind it is in vivo, rat. The note with it: 1.0 mg/kg, IP, 1-hour test sessions, FIG. 4.
The subject of assay [3] is rats. Briefly: Locomotor activity test. The format is in vivo, rat. Particulars: FIG. 3B.
In assay [4] the target is T1, human kappa opioid receptor (Homo sapiens, UniProt P41145).
T1 construct: expressed in transfected cells; host or cells: Chinese hamster ovary cells (CHO-hKOR), membranes
T1 sequence (P41145 whole entry): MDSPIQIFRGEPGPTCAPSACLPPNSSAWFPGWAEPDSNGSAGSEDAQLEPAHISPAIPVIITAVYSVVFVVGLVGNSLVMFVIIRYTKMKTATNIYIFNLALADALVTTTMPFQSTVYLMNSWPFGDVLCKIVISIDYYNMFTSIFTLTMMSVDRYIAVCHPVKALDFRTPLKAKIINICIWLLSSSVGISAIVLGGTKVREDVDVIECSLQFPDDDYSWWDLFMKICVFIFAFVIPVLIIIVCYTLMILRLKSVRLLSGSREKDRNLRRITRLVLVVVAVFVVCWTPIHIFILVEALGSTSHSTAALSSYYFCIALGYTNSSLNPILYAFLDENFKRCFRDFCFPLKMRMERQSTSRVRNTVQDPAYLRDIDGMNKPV
Briefly: biochemical.

For assay [5], the target named is T1, human kappa opioid receptor. Put plainly: biochemical. The format is binding.

Turning to `COC(=O)[C@@H]1C[C@H](OC(C)=O)C(=O)C2[C@@]1(C)CC[C@H]1C(=O)O[C@H](c3ccoc3)C[C@]21C` (stereo partly drawn) [salvinorin A], in the assay on rats [1], the “effect in the forced swim test” value is “depressive-like effects”. For the same compound, the ICSS thresholds entry in the assay with rats [2] is reported as “significantly elevated ICSS thresholds”. Also, the “effect on locomotor activity” value in the assay on rats [3] is “without affecting locomotor activity”.

With `C=CCO[C@H]1C[C@@H](C(=O)OC)[C@]2(C)CC[C@H]3C(=O)O[C@H](c4ccoc4)C[C@]3(C)C2C1=O` (stereo partly drawn) [Compound 14, 2-allyloxy-salvinorin B], the EC50 in assay [4] came out at 145 ± 33 nM. Also, the Emax in assay [4] (1 h, read-out: Efficacy) amounted to 106%. In addition, the affinity in assay [5], expressed as Ki, was 60.1 ± 5.1 nM.
